In the series the test system is rodent lifetime carcinogenesis bioassay, tumor incidence TD50. Nature of the series: chronic cancer bioassays in animals – CPDB, compiled studies (AID 1745844).

The source made the active and inactive calls. No rule for the calls is given here.

Here are results for 9 molecules from PubChem BioAssay AID1745844 (Carcinogenic Potency Database (CPDB), 2022).

One may read the TD50 as the dose at which the toxic effect under study appears in half of the subjects. For the molecule `S=C(SN1CCOCC1)N1CCOCC1`, the TD50 is, setting by setting: (rat, strain Sprague-Dawley, females, in feed, site: kidney, lesion: several types, types named in the paper, dosed 112 weeks, study length 112 weeks) 338 mg/kg/day; (rat, strain Sprague-Dawley, females, in feed, site: kidney, lesion: squamous-cell carcinoma, dosed 112 weeks, study length 112 weeks) 571 mg/kg/day; (rat, strain Sprague-Dawley, females, in feed, site: kidney, lesion: urothelial carcinoma, dosed 112 weeks, study length 112 weeks) 571 mg/kg/day; (rat, strain Sprague-Dawley, females, in feed, site: kidney, lesion: urothelial papilloma, dosed 112 weeks, study length 112 weeks) 1740 mg/kg/day; (rat, strain Sprague-Dawley, females, in feed, site: urinary bladder, lesion: several types, types named in the paper, dosed 112 weeks, study length 112 weeks) 206 mg/kg/day; (rat, strain Sprague-Dawley, females, in feed, site: urinary bladder, lesion: squamous-cell carcinoma, dosed 112 weeks, study length 112 weeks) 1740 mg/kg/day. Also, the TD50 is 862 mg/kg/day (rat, strain Sprague-Dawley, females, in feed, site: urinary bladder, lesion: squamous-cell papilloma, dosed 112 weeks, study length 112 weeks); 862 mg/kg/day (rat, strain Sprague-Dawley, females, in feed, site: urinary bladder, lesion: urothelial carcinoma, dosed 112 weeks, study length 112 weeks); 571 mg/kg/day (rat, strain Sprague-Dawley, females, in feed, site: urinary bladder, lesion: urothelial papilloma, dosed 112 weeks, study length 112 weeks); 96.9 mg/kg/day (rat, strain Sprague-Dawley, females, in feed, site: urinary tract, lesion: several types, types named in the paper, dosed 112 weeks, study length 112 weeks); 528 mg/kg/day (rat, strain Sprague-Dawley, males, in feed, site: kidney, lesion: several types, types named in the paper, dosed 112 weeks, study length 112 weeks); 1390 mg/kg/day (rat, strain Sprague-Dawley, males, in feed, site: kidney, lesion: squamous-cell carcinoma, dosed 112 weeks, study length 112 weeks). Also, the TD50 (rat, strain Sprague-Dawley, males, in feed, site: kidney, lesion: urothelial carcinoma, dosed 112 weeks, study length 112 weeks) worked out at 690 mg/kg/day; the TD50 (rat, strain Sprague-Dawley, males, in feed, site: urinary bladder, lesion: several types, types named in the paper, dosed 112 weeks, study length 112 weeks) was 130 mg/kg/day; the TD50 (rat, strain Sprague-Dawley, males, in feed, site: urinary bladder, lesion: squamous-cell carcinoma, dosed 112 weeks, study length 112 weeks) is 690 mg/kg/day; the TD50 (rat, strain Sprague-Dawley, males, in feed, site: urinary bladder, lesion: squamous-cell papilloma, dosed 112 weeks, study length 112 weeks) is 1390 mg/kg/day; the TD50 (rat, strain Sprague-Dawley, males, in feed, site: urinary bladder, lesion: urothelial carcinoma, dosed 112 weeks, study length 112 weeks) is 340 mg/kg/day; the TD50 (rat, strain Sprague-Dawley, males, in feed, site: urinary bladder, lesion: urothelial papilloma, dosed 112 weeks, study length 112 weeks) was 457 mg/kg/day. Further, for the setting “rat, strain Sprague-Dawley, males, in feed, site: urinary tract, lesion: several types, types named in the paper, dosed 112 weeks, study length 112 weeks”, the TD50 was 85.5 mg/kg/day.

Turning to `CCCCN(CC)C(=O)SCCC`, the TD50 (mouse, strain B6AKF1, females, oral dosing, site: any site (literature study), lesion: several types, types named in the paper, dosed 76 weeks, study length 76 weeks) is 219 mg/kg/day (inactive); the TD50 (mouse, strain B6AKF1, females, oral dosing, site: lung, lesion: adenoma, dosed 76 weeks, study length 76 weeks) is 113 mg/kg/day (inactive); the TD50 (mouse, strain B6C3F1, females, oral dosing, site: any site (literature study), lesion: several types, types named in the paper, dosed 76 weeks, study length 76 weeks) is 251 mg/kg/day (inactive); the TD50 (mouse, strain B6C3F1, females, oral dosing, site: lung, lesion: adenoma, dosed 76 weeks, study length 76 weeks) is 267 mg/kg/day (inactive). Further, the carcinogen call by setting is: (mouse, strain B6AKF1, females, oral dosing, site: liver, lesion: hepatoma, dosed 76 weeks, study length 76 weeks) “negative (inactive)”; (mouse, strain B6AKF1, males, oral dosing, site: any site (literature study), lesion: several types, types named in the paper, dosed 76 weeks, study length 76 weeks) “negative (inactive)”; (mouse, strain B6AKF1, males, oral dosing, site: liver, lesion: hepatoma, dosed 76 weeks, study length 76 weeks) “negative (inactive)”; (mouse, strain B6AKF1, males, oral dosing, site: lung, lesion: adenoma, dosed 76 weeks, study length 76 weeks) “negative (inactive)”; (mouse, strain B6C3F1, females, oral dosing, site: liver, lesion: hepatoma, dosed 76 weeks, study length 76 weeks) “negative (inactive)”; (mouse, strain B6C3F1, males, oral dosing, site: any site (literature study), lesion: several types, types named in the paper, dosed 76 weeks, study length 76 weeks) “negative (inactive)”. In addition, the carcinogen call was “negative (inactive)” (mouse, strain B6C3F1, males, oral dosing, site: liver, lesion: hepatoma, dosed 76 weeks, study length 76 weeks) and “negative (inactive)” (mouse, strain B6C3F1, males, oral dosing, site: lung, lesion: adenoma, dosed 76 weeks, study length 76 weeks).

Turning to `O=NN1CCCC[C@H]1c1cccnc1`, the TD50 was 17.7 mg/kg/day (rat, strain Chester Beatty albino, females, in drinking water, site: esophagus, lesion: benign tumor, dosed 73 weeks, study length 73 weeks); 12.9 mg/kg/day (rat, strain Chester Beatty albino, females, in drinking water, site: esophagus, lesion: several types, types named in the paper, dosed 73 weeks, study length 73 weeks); 413 mg/kg/day (rat, strain Chester Beatty albino, females, in drinking water, site: esophagus, lesion: squamous-cell carcinoma, dosed 73 weeks, study length 73 weeks); 28.1 mg/kg/day (rat, strain Chester Beatty albino, males, in drinking water, site: esophagus, lesion: benign tumor, dosed 73 weeks, study length 73 weeks); 11 mg/kg/day (rat, strain Chester Beatty albino, males, in drinking water, site: esophagus, lesion: several types, types named in the paper, dosed 73 weeks, study length 73 weeks); 86 mg/kg/day (rat, strain Chester Beatty albino, males, in drinking water, site: esophagus, lesion: squamous-cell carcinoma, dosed 73 weeks, study length 73 weeks).

Take `C/C=C/C=O`: the TD50 (rat, strain Charles River, males, in drinking water, site: liver, lesion: neoplastic nodule, dosed 113 weeks, study length 113 weeks) was determined as 4.2 mg/kg/day and the TD50 (rat, strain Charles River, males, in drinking water, site: liver, lesion: several types, types named in the paper, dosed 113 weeks, study length 113 weeks) is 4.2 mg/kg/day.

In the case of `O=NN1CCOC1`, the TD50 is, setting by setting: (hamster, strain Syrian Golden, females, by gavage, site: forestomach, lesion: several types, types named in the paper, dosed 30 weeks, study length 104 weeks) 2.61 mg/kg/day; (hamster, strain Syrian Golden, males, by gavage, site: any site (literature study), lesion: several types, types named in the paper, dosed 35 weeks, study length 65 weeks) 0.267 mg/kg/day; (hamster, strain Syrian Golden, males, by gavage, site: liver, lesion: cholangiocarcinoma, dosed 35 weeks, study length 65 weeks) 0.471 mg/kg/day; (hamster, strain Syrian Golden, males, by gavage, site: liver, lesion: hepatocellular adenoma, dosed 35 weeks, study length 65 weeks) 0.949 mg/kg/day; (hamster, strain Syrian Golden, males, by gavage, site: liver, lesion: hepatocellular carcinoma, dosed 35 weeks, study length 65 weeks) 2.63 mg/kg/day; (hamster, strain Syrian Golden, males, by gavage, site: lung, lesion: carcinoma, dosed 35 weeks, study length 65 weeks) 14.8 mg/kg/day.

With `CN1CCC[C@H]1c1cccnc1`, the carcinogen call (mouse, strain Swiss albino, females, in drinking water, site: liver, lesion: several types, types named in the paper, dosed 121 weeks, study length 123 weeks) was “negative (inactive)”; the carcinogen call (mouse, strain Swiss albino, males, in drinking water, site: liver, lesion: several types, types named in the paper, dosed 114 weeks, study length 120 weeks) is “negative (inactive)”; the carcinogen call (mouse, strain Swiss albino, males, in drinking water, site: lung, lesion: one or several types, types not named, dosed 114 weeks, study length 120 weeks) is “negative (inactive)”; the carcinogen call (rat, strain Sprague-Dawley, females, i.p., site: any site (literature study), lesion: malignant tumor, dosed 104 weeks, study length 104 weeks) was “negative (inactive)”. In addition, the TD50 runs as follows: (mouse, strain Swiss albino, females, in drinking water, site: lung, lesion: one or several types, types not named, dosed 121 weeks, study length 123 weeks) 11100 mg/kg/day (inactive); (rat, strain Sprague-Dawley, males, i.p., site: any site (literature study), lesion: malignant tumor, dosed 104 weeks, study length 104 weeks) 6.38 mg/kg/day (inactive).

Take `CCCCOC(=O)c1ccc(O)cc1`: the TD50 by setting is: (mouse, strain ICR/Jcl, females, in feed, site: any site (literature study), lesion: several types, types named in the paper, dosed 102 weeks, study length 106 weeks) 2720 mg/kg/day (inactive); (mouse, strain ICR/Jcl, females, in feed, site: lung, lesion: one or several types, types not named, dosed 102 weeks, study length 106 weeks) 5100 mg/kg/day (inactive); (mouse, strain ICR/Jcl, males, in feed, site: any site (literature study), lesion: several types, types named in the paper, dosed 102 weeks, study length 106 weeks) 5240 mg/kg/day (inactive); (mouse, strain ICR/Jcl, males, in feed, site: liver, lesion: one or several types, types not named, dosed 102 weeks, study length 106 weeks) 27400 mg/kg/day (inactive); (mouse, strain ICR/Jcl, males, in feed, site: lung, lesion: one or several types, types not named, dosed 102 weeks, study length 106 weeks) 119000 mg/kg/day (inactive). Also, the carcinogen call (mouse, strain ICR/Jcl, females, in feed, site: liver, lesion: one or several types, types not named, dosed 102 weeks, study length 106 weeks) was “negative (inactive)”.

As for `O=S(=O)([O-])[O-].[Ni+2]`, the carcinogen call is, setting by setting: (mouse, strain B6C3F1, females, inhaled, site: any site (literature study), lesion: several types, types named in the paper, dosed 104 weeks, study length 104 weeks) “negative (inactive)”; (mouse, strain B6C3F1, males, inhaled, site: any site (literature study), lesion: several types, types named in the paper, dosed 104 weeks, study length 105 weeks) “negative (inactive)”; (rat, strain Fischer 344, females, inhaled, site: any site (literature study), lesion: several types, types named in the paper, dosed 104 weeks, study length 104 weeks) “negative (inactive)”; (rat, strain Fischer 344, males, inhaled, site: any site (literature study), lesion: several types, types named in the paper, dosed 104 weeks, study length 105 weeks) “negative (inactive)”. For the same molecule, the TD50 is, setting by setting: (mouse, strain B6C3F1, females, inhaled, site: lung, lesion: alveolar/bronchiolar adenoma + alveolar/bronchiolar carcinoma, dosed 104 weeks, study length 104 weeks) 3.1 mg/kg/day; (rat, strain Fischer 344, males, inhaled, site: liver, lesion: hepatocellular adenoma + hepatoblastoma + hepatocellular carcinoma, dosed 104 weeks, study length 105 weeks) 2.08 mg/kg/day.

`C=CC(OC(C)=O)c1ccc2c(c1)OCO2` (centres undefined): the TD50 (rat, strain Charles River CD (Sprague-Dawley), males, in feed, site: any site (literature study), lesion: several types, types named in the paper, dosed 36 weeks, study length 52 weeks) amounted to 21.1 mg/kg/day; the TD50 (rat, strain Charles River CD (Sprague-Dawley), males, in feed, site: any site (literature study), lesion: several types, types named in the paper, dosed 47 weeks, study length 69 weeks) stood at 32.4 mg/kg/day; the TD50 (rat, strain Charles River CD (Sprague-Dawley), males, in feed, site: forestomach, lesion: papilloma, dosed 36 weeks, study length 52 weeks) is 21.1 mg/kg/day; the TD50 (rat, strain Charles River CD (Sprague-Dawley), males, in feed, site: forestomach, lesion: papilloma, dosed 47 weeks, study length 69 weeks) is 30.7 mg/kg/day; the TD50 (rat, strain Charles River CD (Sprague-Dawley), males, in feed, site: liver, lesion: hepatocellular carcinoma, dosed 36 weeks, study length 52 weeks) is 348 mg/kg/day (inactive). The carcinogen call (rat, strain Charles River CD (Sprague-Dawley), males, in feed, site: liver, lesion: carcinoma, dosed 47 weeks, study length 69 weeks) was “negative (inactive)”.
